For 17 compounds, melting point and Ki results are on record in patent US7790751B2, “Azinyl-3-sulfonylindazole derivatives as 5-hydroxytryptamine-6 ligands” (Wyeth LLC, priority 2005, dated 2010).

SMILES strings stand for the structures. Where a name gives a salt, the structure may show the parent alone.

Data set [1] has as its target human cloned 5-HT6 receptors (Homo sapiens, UniProt P50406). Briefly: Evaluation of 5-HT6 binding affinity of test compounds ([3H]-LSD displacement).

Chain of human cloned 5-HT6 receptors (P50406 whole entry): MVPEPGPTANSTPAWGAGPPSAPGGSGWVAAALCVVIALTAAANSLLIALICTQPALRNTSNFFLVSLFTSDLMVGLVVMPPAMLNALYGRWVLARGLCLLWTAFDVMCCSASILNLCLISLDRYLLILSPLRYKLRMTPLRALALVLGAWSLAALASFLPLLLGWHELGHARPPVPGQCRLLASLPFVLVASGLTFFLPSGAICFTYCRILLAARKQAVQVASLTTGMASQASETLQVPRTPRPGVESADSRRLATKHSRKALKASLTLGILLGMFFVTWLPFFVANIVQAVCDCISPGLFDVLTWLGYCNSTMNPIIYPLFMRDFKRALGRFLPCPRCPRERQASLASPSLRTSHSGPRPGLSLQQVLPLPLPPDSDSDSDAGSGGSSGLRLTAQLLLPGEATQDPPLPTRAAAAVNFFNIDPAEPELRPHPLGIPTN

`O=S(=O)(c1cccc2ccccc12)c1n[nH]c2ccc(OC3CCNC3)cc12` (centres unmarked) (as salt: hydrochloride) [Example 1, 3-(Naphthalene-1-sulfonyl)-5-(pyrrolidin-3-yloxy)-1H-indazole]: the melting point is 168 to 170 °C (dec.).
As for `O=S(=O)(c1cccc2ccccc12)c1n[nH]c2ccc(OC3CCNCC3)cc12` (as salt: hydrochloride) [Example 6, 3-(1-Naphthylsulfonyl)-5-(piperidin-4-yloxy)-1H-indazole Hydrochloride], the melting point is 174 to 176 °C (dec.).
In turn, `CN1CCC(Oc2ccc3[nH]nc(S(=O)(=O)c4cccc5ccccc45)c3c2)CC1` (as salt: hydrochloride) [Example 21, 5-(1-Methylpiperidin-4-yloxy)-3-(1-naphthylsulfonyl)-1H-indazole Hydrochloride] returned a melting point of 252 to 254 °C.
`O=S(=O)(c1cccc2ccccc12)c1n[nH]c2ccc(OCC3CCNCC3)cc12` [Example 27, 3-(1-naphthylsulfonyl)-5-(piperidin-4-ylmethoxy)-1H-indazole] yielded a melting point of 175 to 177 °C. Besides, in data set [1], the Ki lay within 11 to 25 nM.
For `O=S(=O)(c1cccc2ccccc12)c1n[nH]c2ccc(OCC3CCCNC3)cc12` (centres unmarked) [Example 28, 3-(1-Naphthylsulfonyl)-5-(piperidin-3-ylmethoxy)-1H-indazole] the same measures were 168 to 170 °C and 0.01 to 10 nM.
For `O=S(=O)(c1cccc2ccccc12)c1n[nH]c2ccc(OC3CCCNC3)cc12` (centres unmarked) [Example 29, 3-(1-Naphthylsulfonyl)-5-(piperidin-3-yloxy)-1H-indazole] the same measures were 178 to 180 °C and 0.01 to 10 nM.
Consider `O=S(=O)(c1cccc(F)c1)c1n[nH]c2ccc(NC3CCNCC3)cc12` [Example 45, 3-[(3-fluorophenyl)sulfonyl]-N-piperidin-4-yl-1H-indazol-5-amine], for which the inhibitory constant (Ki) in data set [1] lay in the range of 0.01 to 10 nM.
On the same count and under the same terms, for `O=S(=O)(c1ccc(F)cc1)c1n[nH]c2ccc(NC3CCNCC3)cc12` [Example 46, 3-[(4-fluorophenyl)sulfonyl]-N-piperidin-4-yl-1H-indazol-5-amine] the value was 0.01 to 10 nM.
In turn, `CC(C)c1ccc(S(=O)(=O)c2n[nH]c3ccc(NC4CCNCC4)cc23)cc1` [Example 47, 3-[(4-isopropylphenyl)sulfonyl]-N-piperidin-4-yl-1H-indazol-5-amine] came in with an inhibition constant Ki in data set [1] of 0.01 to 10 nM.
The compound `O=S(=O)(c1ccc(C(F)(F)F)cc1)c1n[nH]c2ccc(NC3CCNCC3)cc12` [Example 48, N-piperidin-4-yl-3-{[4-(trifluoromethyl)phenyl]sulfonyl}-1H-indazol-5-amine] displayed a Ki in data set [1] of 0.01 to 10 nM.
For the compound `O=S(=O)(c1ccccc1)c1n[nH]c2ccc(NC3CCNCC3)cc12` [Example 49, 3-(phenylsulfonyl)-N-piperidin-4-yl-1H-indazol-5-amine], the Ki in data set [1] lay in the range of 0.01 to 10 nM.
In data set [1], `COc1ccc(S(=O)(=O)c2n[nH]c3ccc(NC4CCNCC4)cc23)cc1` [Example 50, 3-[(4-methoxyphenyl)sulfonyl]-N-piperidin-4-yl-1H-indazol-5-amine] returned a Ki of 0.01 to 10 nM.
In the case of `Cc1cccc(S(=O)(=O)c2n[nH]c3ccc(NC4CCNCC4)cc23)c1` [Example 51, 3-[(3-methylphenyl)sulfonyl]-N-piperidin-4-yl-1H-indazol-5-amine], in data set [1], the inhibition constant (Ki) was 0.01 to 10 nM.
For the compound `O=C(Nc1ccc2[nH]nc(S(=O)(=O)c3cccc4ccccc34)c2c1)C1CCNCC1` [Example 52, N-[3-(1-Naphthylsulfonyl)-1H-indazol-5-yl]piperidine-4-carboxamide Hydrochloride], in data set [1], the Ki was 0.01 to 10 nM.
On to `O=C(Nc1ccc2c(S(=O)(=O)c3cccc4ccccc34)n[nH]c2c1)C1CCNCC1` [Example 53, N-[3-(1-Naphthylsulfonyl)-1H-indazol-6-yl]piperidine-4-carboxamide Dihydrochloride], for which the inhibition constant (Ki) in data set [1] was in the range of 26 to 35 nM.
In the case of `O=C(Nc1cccc2c(S(=O)(=O)c3cccc4ccccc34)n[nH]c12)C1CCNCC1` [Example 54, N-[3-(1-Naphthylsulfonyl)-1H-indazol-7-yl]piperidine-4-carboxamide Dihydrochloride], the inhibitory constant (Ki) in data set [1] was in the range of 26 to 35 nM.
Compound `O=C(Nc1cccc2c(S(=O)(=O)c3cccc4ccccc34)n[nH]c12)C1CCCNC1` (centres unmarked) [Example 55, N-[3-(1-Naphthylsulfonyl)-1H-indazol-7-yl]piperidine-3-carboxamide Dihydrochloride] gave an inhibition constant Ki in data set [1] of 0.01 to 10 nM.
